The IC50 is the concentration that inhibits the measured activity by half.

Consider 8 compounds from patent US20030073731A1, “Compositions and methods of the use thereof achiral analogues of CC-1065 and the duocarmycins” (priority 2000, published 2003).

One series has as its system plasmid pBR322 DNA. Nature of the series: Taq polymerase stop assay. It counts as biochemical.
The conditions of series [1]: mice, therapeutic doses; cited from earlier work.
For series [2], the system named is K562 human chronic myeloid leukemia cells. Nature of the series: cells. It is filed as cell-based. Here is the method:
The cytotoxicity was determined using a MTT tetrazolium dye assay (42). […] The incubation was terminated by centrifugation (5 minutes, 300 g) and the cells were washed once with drug-free medium. Following the appropriate drug treatment, the cells were transferred to 96-well microtitre plates, 10^4 cells per well, 8 wells per sample. Plates were then kept in the dark at 37° C. in a humidified atmosphere containing 5% CO2. […] Following incubation of the plates for 4 days (to allow control cells to increase in number by 10 fold) 20 μL of a 5 mg/mL solution of MTT in phosphate buffered saline was added to each well and the plates further incubated for 5 hours. The plates were then centrifuged for 5 minutes at 300 g and the bulk of the medium pipetted from the cell pellet leaving 10-20 μL per well. 200 μL DMSO was added to each well and the samples agitated to ensure complete mixing. The optical density was the read at a wavelength of 550 nm on a Titertek Multiscan ELISA plate reader, and the dose-response curve was constructed.

Another series deals with L1210 leukemia cells. Nature of the series: cells. It counts as cell-based, murine. The conditions noted are these: Mus musculus; L1210, 72 hr incubation. Here is the method:
(§1) The P815 and L1210 cell lines were obtained from American Type Tissue Culture Collection (ATCC). The cell lines were grown in Delbecco's Modified Eagle Medium (DMEM, Atlanta Biologicals) supplemented with 10% fetal bovine serum, Hepes Buffer (2 mM, Mediatech Cellgro, 25-060-Cl), L-Glutamine (2 mM, Mediatech Cellgro), and penicillin/streptomycin (50,000 units penicillin, […] streptomycin, Atlanta Biologicals). Cells were maintained at 37° C. in a 5% humidified CO2 atmosphere. […] This cell suspension (100 μL) was added to 96 well flat-bottom cell culture plates. At this concentration, 80,000 cells were seeded in each well. Drug solutions (dissolved in DMSO and diluted in DMEM) were added to each well (5 μL/well) resulting in final concentrations ranging from […] to 1×10^−12 M. Quadruplicate wells were prepared for each drug concentration. The plates were incubated for 72 hr at 37° C. in a 5% CO2 atmosphere. MTT (3-(4,5-dimethylthiazol-2-yl)-2,5-diphenyl tetrazolium bromide) was dissolved in PBS (5 mg/ml). After the indicated cell incubation period, 10 μL of this stock MTT solution was added to each well and the plates were further incubated for 4 h at 37° C. in a 5% CO2 atmosphere. […] The contents of the well were mixed thoroughly by pipetting the cell suspension up and down and the plates were allowed to sit at room temperature for 15 min in order to allow for full development of the purple color. The plates were read on a Dynatech Plate Reader, utilizing Dynex Revelation 3.2 software, with a test wavelenth of 570 nm and a reference wavelength of […].

A further series concerns P815 mastocytoma cells. Nature of the series: cells. It is filed as cell-based, murine. The conditions noted are these: Mus musculus; P815, 72 hr incubation. Here is the method:
as §1

In series [3] the test system is human tumor cells cultivated in polyvinylidene fluoride (PVDF) hollow fibers. Nature of the series: Hollow fiber assay for preliminary in vivo testing. Also noted: species or system mice.
Protocol: For these assays, human tumor cells are cultivated in polyvinylidene fluoride (PVDF) hollow fibers, and a sample of each cell line is implanted into each of two physiologic compartments (intraperitoneal and subcutaneous) in mice. […] Three mice are treated with potential antitumor compounds at each of 2 test doses by the intraperitoneal route using a QD×4 treatment schedule. Vehicle controls consist of 6 mice receiving the compound diluent only. The fiber cultures are collected on the day following the last day of treatment. To assess anticancer effects, viable cell mass is determined for each of the cell lines using a formazan dye (MTT) conversion assay. From this, the %T/C can be calculated using the average optical density of the compound treated samples divided by the average optical density of the vehicle controls. In addition, the net increase in cell mass can be determined for each sample as a sample of fiber cultures are assessed for viable cell mass on the day of implantation into mice. Thus, the cytostatic and cytocidal capacities of the test compound can be assessed.
The data are reported as %T/C for each of the 2 compound doses against each of the cell lines with separate values calculated for the intraperitoneal and subcutaneous samples.
The intraperitoneal and subcutaneous samples are scored separately so that criteria (1) and (2) can be evaluated.
Series [4] concerns panel of 60 human cancer cell lines. The settings on record: 48 hour exposure.
The test system of a further series is L1210 leukemia. The settings on record: carzelesin 400 μg/kg, adozelesin 100 μg/kg; cited from earlier work.
In another series the test system is melanoma. The settings on record: phase I clinical trial; cited from earlier work.
Series [5] has as its system mouse L1210 leukemia cells. The settings on record: cited from earlier work.
Where [6] appears, read: 72 h, continuous exposure (3 days).

On to “4-(2-Bromoethyl)-3-[5-(5-benzofuran-2-carboxamido)indole-2-carboxamido]phenol [Compound 2]”, for which the “efficiency in alkylating DNA compared with chloro-compound 1” value with plasmid pBR322 DNA is “less efficient in alkylating DNA”.

`COC(=O)c1cc2c([nH]1)C(=O)C=C1N(C(=O)c3cc4cc(OC)c(OC)c(OC)c4[nH]3)CC3CC123` (single isomer, unassigned; (+)) [DUMSA, (+)-duocarmycin SA]: the delayed lethality result in series [1] is given as “devoid of this toxic side effect”.

The compound `COc1cc2cc(C(=O)Nc3cc(N)ccc3CCCl)[nH]c2c(OC)c1OC` [Compound 24, 4-(2-Chloroethyl)-3-(5,6,7-trimethoxyindole-2-carboxamido)aniline] returned an IC50 in [2] (setting [6]) of 1300 ± 300 nM.

With `COc1cc2cc(C(=O)Nc3cc(N)c4ccccc4c3CCCl)[nH]c2c(OC)c1OC` [Compound 25, 4-(2-Chloroethyl)-3-(5,6,7-trimethoxyindole-2-carboxamido)-1-naphthylamine], the IC50 came to 18 nM in [2] (1 hour exposure), 45 nM in [2] (setting [6]), 180 nM with L1210 leukemia cells and 68 nM in the series with P815 mastocytoma cells. Moreover, in series [3] (hollow fiber studies), the cell kill entry was “cell kill observed”. In addition, the SC score in series [3] (subcutaneous fibers) is 8. The “cytotoxic activity in the NCI screen” value in [4] was “activity in the micromolar range”.

With `COc1cc2cc(C(=O)Nc3cc(O)c4ccccc4c3CCCl)[nH]c2c(OC)c1OC` [Compound 26, 4-(2-Chloroethyl)-3-(5,6,7-trimethoxyindole-2-carboxamido)-1-naphthol], the IC50 came to 17 nM in series [2] (1 hour exposure), 150 nM in series [2] (setting [6]) and 55 nM with L1210 leukemia cells. In addition, in series [4], the “cytotoxic activity in the NCI screen” value is given as “activity in the micromolar range”.

Turning to `Cc1c[nH]c2c1[C@@]13C[C@@H]1CN(C(=O)c1cc4cc(NC(=O)c5cc6ccccc6o5)ccc4[nH]1)C3=CC2=O` [adozelesin], in the series on L1210 leukemia, the ILS is 90±11 % ILS. Also, in the series on melanoma, the clinical response result is reported as “partial response on a melanoma patient”.

For the compound `CCN(CC)c1ccc2cc(C(=O)Nc3ccc4[nH]c(C(=O)N5C[C@@H](CCl)c6c5cc(OC(=O)Nc5ccccc5)c5[nH]cc(C)c65)cc4c3)oc2c1` [carzelesin], the ILS in the series on L1210 leukemia is 150±8 % ILS.

For the compound (+)-CC1065, in [5] (L1210), the IC50 is 0.02 nM. Besides, the “IC50 values” in series [5] (growth of mouse L1210 leukemia cells in culture) was “pM range”. In series [1], the delayed lethality entry is listed as “delayed lethality in mice at therapeutic doses”.
